US6610853B1, “N-(phenylsulfonyl)picolinamide derivatives, process for producing the same, and herbicide” (Kureha Kagaku Kogyo K.K., priority 2000, dated 2003)

Experiments:
Test in all cases: Test on herbicidal activity by foliar application
Assay type in all cases: in vivo
Conditions in all cases: foliar spray, 1 kg/ha, plants at 1-2 leaf stage in pots, evaluated 14 days after spraying
Abutilon theophrasti = tested on: Abutilon theophrasti
Procedure: (§1) Test on Herbicidal Activity by Foliar Application: Herbicidal solutions of each test compounds, which were prepared by dissolving at predetermined concentrations such a wettable powder of the test compound as that described in the above Formulation Example, were sprayed at dosages of 1 kg/ha over foliar parts of Amaranthus retroflexus, Bidens pilosa, Sinapis arvensis, Stellaria media, Solanum nigrum, Abutilon theophrasti, Convolvulus arvensis, Matricaria chamomilla, Galium aparine, Veronica hederaefolia, and Setaria viridis (each test plant is 1-2 leaf stage) which were grown in pots. 14 days latter after spraying, its herbicidal activity was evaluated in accordance with the below-described system. Herbicidal Activity 1: less than 30% inhibition 2: 30% or more-50% inhibition 3: 50% or more-70% inhibition 4: 70% or more-90% inhibition 5: 90% or more inhibition

Amaranthus retroflexus = tested on: Amaranthus retroflexus
Procedure: as §1

Bidens pilosa = tested on: Bidens pilosa
Procedure: as §1

Convolvulus arvensis = tested on: Convolvulus arvensis
Procedure: as §1

Galium aparine = tested on: Galium aparine
Procedure: as §1

Matricaria chamomilla = tested on: Matricaria chamomilla
Procedure: as §1

Setaria viridis = tested on: Setaria viridis
Procedure: as §1

Sinapis arvensis = tested on: Sinapis arvensis
Procedure: as §1

Solanum nigrum = tested on: Solanum nigrum
Procedure: as §1

Stellaria media = tested on: Stellaria media
Procedure: as §1

Veronica hederaefolia = tested on: Veronica hederaefolia
Procedure: as §1

Row | Compound | Herbicidal activity, Abutilon theophrasti (Abutilon theophrasti) | Herbicidal activity, Amaranthus retroflexus (Amaranthus retroflexus) | Herbicidal activity, Bidens pilosa (Bidens pilosa) | Herbicidal activity, Convolvulus arvensis (Convolvulus arvensis) | Herbicidal activity, Galium aparine (Galium aparine) | Herbicidal activity, Matricaria chamomilla (Matricaria chamomilla) | Herbicidal activity, Setaria viridis (Setaria viridis) | Herbicidal activity, Sinapis arvensis (Sinapis arvensis) | Herbicidal activity, Solanum nigrum (Solanum nigrum) | Herbicidal activity, Stellaria media (Stellaria media) | Herbicidal activity, Veronica hederaefolia (Veronica hederaefolia)
1 | O=C(NS(=O)(=O)c1c(Cl)cccc1Cl)c1cc(Cl)cc(Cl)n1 [Compound I-557, 4,6-Dichloro-N-[(2,6-Dichlorophenyl)sulfonyl]-pyridine-2-carboxamide] | 5 (90% or more inhibition) | 5 (90% or more inhibition) | 5 (90% or more inhibition) | 5 (90% or more inhibition) | 5 (90% or more inhibition) | 5 (90% or more inhibition) | 5 (90% or more inhibition) | 5 (90% or more inhibition) | 5 (90% or more inhibition) | 5 (90% or more inhibition) | 5 (90% or more inhibition)
2 | COc1cc(Cl)cc(C(=O)NS(=O)(=O)c2c(Cl)cccc2Cl)n1 [Compound I-581, N-[(2,6-Dichlorophenyl)sulfonyl]-4-chloro-6-methoxy-2-pyridinecarboxamide] | 4 (70% or more-90% inhibition) | 5 (90% or more inhibition) | 5 (90% or more inhibition) | 4 (70% or more-90% inhibition) | 5 (90% or more inhibition) | 5 (90% or more inhibition) | 4 (70% or more-90% inhibition) | 5 (90% or more inhibition) | 5 (90% or more inhibition) | 5 (90% or more inhibition) | 4 (70% or more-90% inhibition)
3 | O=C(NS(=O)(=O)c1c(Cl)cccc1Cl)c1cccc(Cl)n1 [Compound I-591, N-[(2,6-Dichlorophenyl)sulfonyl]-6-chloro-2-pyridinecarboxamide] | 5 (90% or more inhibition) | 5 (90% or more inhibition) | 5 (90% or more inhibition) | 5 (90% or more inhibition) | 5 (90% or more inhibition) | 5 (90% or more inhibition) | 1 (less than 30% inhibition) | 5 (90% or more inhibition) | 5 (90% or more inhibition) | 5 (90% or more inhibition) | 5 (90% or more inhibition)
4 | COc1ccc(C(=O)NS(=O)(=O)c2c(Cl)cccc2Cl)nc1 [Compound I-594, N-[(2,6-Dichlorophenyl)sulfonyl]-5-methoxy-2-pyridinecarboxamide] | 4 (70% or more-90% inhibition) | 2 (30% or more-50% inhibition) | 4 (70% or more-90% inhibition) | 2 (30% or more-50% inhibition) | 4 (70% or more-90% inhibition) | 4 (70% or more-90% inhibition) | 2 (30% or more-50% inhibition) | 5 (90% or more inhibition) | 2 (30% or more-50% inhibition) | 5 (90% or more inhibition) | 4 (70% or more-90% inhibition)
5 | COc1cc(Cl)nc(C(=O)NS(=O)(=O)c2c(Cl)cccc2Cl)c1 [Compound I-615, 6-Chloro-N-[(2,6-Dichlorophenyl)sulfonyl]-4-methoxypyridine-2-carboxamide] | 5 (90% or more inhibition) | 4 (70% or more-90% inhibition) | 5 (90% or more inhibition) | 4 (70% or more-90% inhibition) | 5 (90% or more inhibition) | 5 (90% or more inhibition) | 4 (70% or more-90% inhibition) | 5 (90% or more inhibition) | 5 (90% or more inhibition) | 5 (90% or more inhibition) | 4 (70% or more-90% inhibition)
6 | COc1ccc(C(=O)NS(=O)(=O)c2c(Cl)cccc2Cl)nc1Cl [Compound I-618, N-[(2,6-Dichlorophenyl)sulfonyl]-6-chloro-5-methoxy-2-pyridinecarboxamide] | 5 (90% or more inhibition) | 2 (30% or more-50% inhibition) | 5 (90% or more inhibition) | 3 (50% or more-70% inhibition) | 4 (70% or more-90% inhibition) | 5 (90% or more inhibition) | 2 (30% or more-50% inhibition) | 5 (90% or more inhibition) | 5 (90% or more inhibition) | 5 (90% or more inhibition) | 5 (90% or more inhibition)
7 | COc1cc(Cl)nc(C(=O)NS(=O)(=O)c2ccccc2Cl)c1 [Compound I-705, N-[(2-Chlorophenyl)sulfonyl]-6-chloro-4-methoxypyridine-2-carboxamide] | 2 (30% or more-50% inhibition) | 4 (70% or more-90% inhibition) | 5 (90% or more inhibition) | 5 (90% or more inhibition) | 4 (70% or more-90% inhibition) | 4 (70% or more-90% inhibition) | 3 (50% or more-70% inhibition) | 5 (90% or more inhibition) | 4 (70% or more-90% inhibition) | 5 (90% or more inhibition) | 4 (70% or more-90% inhibition)
8 | O=C(NS(=O)(=O)c1ccccc1OC(F)(F)F)c1cccc(Cl)n1 [Compound I-771, N-[[2-Trifluoromethoxyphenyl]sulfonyl]-6-chloro-2-pyridinecarboxamide] | 5 (90% or more inhibition) | 5 (90% or more inhibition) | 5 (90% or more inhibition) | 4 (70% or more-90% inhibition) | 5 (90% or more inhibition) | 5 (90% or more inhibition) | 1 (less than 30% inhibition) | 5 (90% or more inhibition) | 5 (90% or more inhibition) | 5 (90% or more inhibition) | 5 (90% or more inhibition)
